# Measured values: patent publication US20030040015A1, “Methods and reagents for identifying compounds and mutations that modulate dopamine beta-hydroxylase activity” (priority 2001, published 2003)
# Key:
# NE deficient patients [1] = conditions: Biaggioni et al. Lancet 1987; cited from earlier work
# DBH-/- mouse embryos = conditions: DBH-/- embryos that usually die in utero; Thomas et al.; cited from earlier work
# NE deficient patients [2] = experiment: Physiological and pharmacological autonomic function tests in NE deficient patients; type: in vivo, human; conditions: for block of heart rate increase during strain phase (phase II) of the Valsalva maneuver: human, in vivo
# Description: We collected DNA samples from two patients with NE deficiency, and sequenced all exons and exon/intron junctions of their DBH, Phox2a, and Phox2b genes. Resulting novel variants were then examined in the first degree relatives of the NE deficient patients, healthy European-American controls, and in patients with autonomic disorders other than NE deficiency. […] These patients have been previously reported (Robertson D, et al. N Engl J Med; 314:1494, 1986; Biaggioni I, et al. Neurology, 40:370, 1990). The patients were evaluated on the Vanderbilt General Clinical Research Center while in balance on a 150 mEq sodium and 80 mEq potassium diet one week after discontinuation of medications. Both direct and indirect hemodynamic monitoring was carried out and a variety of physiological and pharmacological tests were employed. Catecholamines and their metabolites were analyzed by radioenzymatic and liquid chromatographic methods as described previously (Robertson D, et al. N Engl J Med, 314:1494, 1986; O'Connor D T, et al. Clin Sci, 86:149, 1994).
# CHF patients = conditions: recent clinical studies; cited from earlier work
smiles,measurement,setting,value
"N[C@H](C(=O)O)[C@H](O)c1ccc(O)c(O)c1 [DOPS, dihydroxyphenylserine]",treatment of autonomic and biochemical deficits of NE deficient patients,NE deficient patients [1],successfully treated
same,rescue of homozygous mouse embryos,DBH-/- mouse embryos,rescued homozygous mouse embryos
CN1[C@@H]2CC[C@H]1C[C@@H](OC(=O)C(CO)c1ccccc1)C2 (some centres unmarked) [atropine],block of heart rate increase during strain phase (phase II) of the Valsalva maneuver,NE deficient patients [2],blocked
COc1ccccc1OCCNCC(O)COc1cccc2[nH]c3ccccc3c12 (centres unmarked) [carvedilol],mortality and risk of death and hospitalization,CHF patients,reduced mortality and the risk of death and hospitalization
Clc1cccc(Cl)c1N=C1NCCN1 [clonidine],effect on arterial pressure,"NE deficient patients [2]; 0.3 mg po, decrease expected",increase in arterial pressure
CC(C)NCC(O)c1ccc(O)c(O)c1 (centres unmarked) [isoproterenol],hypersensitivity to the tachycardic effect of the β-adrenoreceptor agonist,NE deficient patients [2]; two NE deficient patients,three-fold hypersensitivity
CNC[C@H](O)c1cccc(O)c1 [phenylephrine],hypersensitivity to intravenous α1-adrenoreceptor agonist,"NE deficient patients [2]; intravenous, two NE deficient patients",four-fold hypersensitivity
CC(C)NCC(O)COc1cccc2ccccc12 (centres unmarked) [propranolol],block of heart rate increase during strain phase (phase II) of the Valsalva maneuver,NE deficient patients [2],not
NCCc1ccc(O)cc1 [tyramine],response to indirectly acting sympathomimetic amine,NE deficient patients [2]; 8 mg IV,absent response
COC(=O)[C@@H]1[C@H]2C[C@H]3c4[nH]c5ccccc5c4CCN3C[C@@H]2CC[C@@H]1O [yohimbine],effect on blood pressure,NE deficient patients [2]; 10 mg po,no effect
same,effect on plasma catecholamines,NE deficient patients [2]; 10 mg po,no effect
